Laboratory results reported in patent US20240100170A1, “CYCLIC-AMP RESPONSE ELEMENT BINDING PROTEIN (CBP) AND/OR ADENOVIRAL E1A BINDING PROTEIN OF 300 KDA (P300) DEGRADATION COMPOUNDS AND METHODS OF USE” (CULLGEN (SHANGHAI), INC., priority 2020, published 2024).

test system: LNCaP prostate cancer cell; test: LNCaP cell viability (CellTiter-Glo); type: cell-based; conditions: 3 days, 3-fold serial dilution from 10 μM; FIG. 4
Experimental: LNCaP cells seeded in 96-well plates were treated with 10 μM GNE-781 or selected bivalent compounds, i.e. P-001, P-002, and P-019, following a 12-point 3-fold serial dilution. Three days after treatment, cell viability was determined using the CellTiter-Glo kit (Promega) following manufacturer's instructions. Cell viability was normalized to the mean values of 3 replicates of untreated cells. Dose-dependent response was analyzed following the least-squares non-linear regression method using the GraphPad Prism 5.0 software.
LNCaP (clone FGC), 22RV1 and other cells were cultured at 37° C. with 5% CO 2 in RPMI 1640 Medium supplemented with 10% fetal bovine serum. Cells were authenticated using the short tandem repeat (STR) assays. Mycoplasma test results were negative.
Cells were seeded at a density of 5000 cells per well in 96-well assay plates and treated with test compounds following a 12-point 3-fold serial dilution. Three days later, cell viability was determined using the CellTiter-Glo assay kit according to the manufactureR's instructions. The dose-response curves were determined and IC50 values were calculated using the GraphPad Prism software following a nonlinear regression (least squares fit) method.

SMILES | viability of LNCaP cells
CNC(=O)N1CCc2c(c(N3CCCc4cc(-c5cnn(C)c5)c(C(F)F)cc43)nn2C2CCN(C(=O)CNc3ccc4c(c3)C(=O)N(C3CCC(=O)NC3=O)C4=O)CC2)C1 (stereo not drawn) [P-001, 3-(7-(difluoromethyl)-6-(1-methyl-1H-pyrazol-4-yl)-3,4-dihydroquinolin-1(2H)-yl)-1-(1-((2-(2,6-dioxopiperidin-3-yl)-1,3-dioxoisoindolin-5-yl)glycyl)piperidin-4-yl)-N-methyl-1,4,6,7-tetrahydro-5H-pyrazolo[4,3-c]pyridine-5-carboxamide] | dose-dependently suppressed viability of LNCaP cells
CNC(=O)N1CCc2c(c(N3CCCc4cc(-c5cnn(C)c5)c(C(F)F)cc43)nn2C2CCN(C(=O)CCNc3ccc4c(c3)C(=O)N(C3CCC(=O)NC3=O)C4=O)CC2)C1 (stereo not drawn) [P-002, 3-(7-(difluoromethyl)-6-(1-methyl-1H-pyrazol-4-yl)-3,4-dihydroquinolin-1(2H)-yl)-1-(1-(3-((2-(2,6-dioxopiperidin-3-yl)-1,3-dioxoisoindolin-5-yl)amino)propanoyl)piperidin-4-yl)-N-methyl-1,4,6,7-tetrahydro-5H-pyrazolo[4,3-c]pyridine-5-carboxamide] | dose-dependently suppressed viability of LNCaP cells
CNC(=O)N1CCc2c(c(N3CCCc4cc(-c5cnn(CC(=O)NCCCCCNc6ccc7c(c6)C(=O)N(C6CCC(=O)NC6=O)C7=O)c5)c(C(F)F)cc43)nn2C2CCOCC2)C1 (stereo not drawn) [P-019, 3-(7-(difluoromethyl)-6-(1-(2-((5-((2-(2,6-dioxopiperidin-3-yl)-1,3-dioxoisoindolin-5-yl)amino)pentyl)amino)-2-oxoethyl)-1H-pyrazol-4-yl)-3,4-dihydroquinolin-1(2H)-yl)-N-methyl-1-(tetrahydro-2H-pyran-4-yl)-1,4,6,7-tetrahydro-5H-pyrazolo[4,3-c]pyridine-5-carboxamide] | dose-dependently suppressed viability of LNCaP cells

same assay, conditions: Homo sapiens, 72 h; LNCaP cell viability, 3 days, CellTiter-Glo; Table 2

SMILES | IC50 [nM]
CNC(=O)N1CCc2c(c(N3CCCc4cc(-c5cnn(CC(=O)NCCCCCCCCCC(=O)NC(C(=O)N6C[C@H](O)CC6C(=O)NCc6ccc(-c7scnc7C)cc6)C(C)(C)C)c5)c(C(F)F)cc43)nn2C2CCOCC2)C1 (stereo in doubt) [P-049, 3-(7-(difluoromethyl)-6-(1-(2-((10-(((S)-1-((2S,4R)-4-hydroxy-2-((4-(4-methylthiazol-5-yl)benzyl)carbamoyl)pyrrolidin-1-yl)-3,3-dimethyl-1-oxobutan-2-yl)amino)-10-oxodecyl)amino)-2-oxoethyl)-1H-pyrazol-4-yl)-3,4-dihydroquinolin-1(2H)-yl)-N-methyl-1-(tetrahydro-2H-pyran-4-yl)-1,4,6,7-tetrahydro-5H-pyrazolo[4,3-c]pyridine-5-carboxamide] | 234
CNC(=O)N1CCc2c(c(N3CCCc4cc(-c5cnn(CC(=O)NCCCCCCCCCCC(=O)N[C@H](C(=O)N6CC(O)C[C@H]6C(=O)NCc6ccc(-c7scnc7C)cc6)C(C)(C)C)c5)c(C(F)F)cc43)nn2C2CCOCC2)C1 (stereo in doubt) [P-050, 3-(7-(difluoromethyl)-6-(1-(2-((11-(((S)-1-((2S,4R)-4-hydroxy-2-((4-(4-methylthiazol-5-yl)benzyl)carbamoyl)pyrrolidin-1-yl)-3,3-dimethyl-1-oxobutan-2-yl)amino)-11-oxoundecyl)amino)-2-oxoethyl)-1H-pyrazol-4-yl)-3,4-dihydroquinolin-1(2H)-yl)-N-methyl-1-(tetrahydro-2H-pyran-4-yl)-1,4,6,7-tetrahydro-5H-pyrazolo[4,3-c]pyridine-5-carboxamide] | 111

same assay, conditions: Homo sapiens, 72 h; LNCaP cell viability, 3 days, CellTiter-Glo; Table 3

SMILES | IC50 [nM]
CNC(=O)N1CCc2c(c(N3CCCc4cc(-c5cnn(CC(=O)NCCOCCOCCOCCOCCOCCC(=O)N[C@H](C(=O)N6C[C@H](O)C[C@H]6C(=O)NCc6ccc(-c7scnc7C)cc6)C(C)(C)C)c5)c(C(F)F)cc43)nn2C2CCOCC2)C1 [P-082] | > 10000
CNC(=O)N1CCc2c(c(N3CCCc4cc(-c5cnn(CC(=O)NCCOCCOCC(=O)N[C@H](C(=O)N6C[C@H](O)C[C@H]6C(=O)NCc6ccc(-c7scnc7C)cc6)C(C)(C)C)c5)c(C(F)F)cc43)nn2C2CCOCC2)C1 [P-083, 3-(7-(difluoromethyl)-6-(1-((S)-13-((2S,4R)-4-hydroxy-2-((4-(4-methylthiazol-5-yl)benzyl)carbamoyl)pyrrolidine-1-carbonyl)-14,14-dimethyl-2,11-dioxo-6,9-dioxa-3,12-diazapentadecyl)-1H-pyrazol-4-yl)-3,4-dihydroquinolin-1(2H)-yl)-N-methyl-1-(tetrahydro-2H-pyran-4-yl)-1,4,6,7-tetrahydro-5H-pyrazolo[4,3-c]pyridine-5-carboxamide] | > 10000
CC(=O)N1CCc2c(c(N3CCCc4cc(-c5cnn(C)c5)c(C(F)F)cc43)nn2C2CCN(CCCNC(=O)CNc3cccc4c3C(=O)N(C3CCC(=O)NC3=O)C4=O)CC2)C1 (stereo not drawn) [P-124, N-(3-(4-(5-acetyl-3-(7-(difluoromethyl)-6-(1-methyl-1H-pyrazol-4-yl)-3,4-dihydroquinolin-1(2H)-yl)-4,5,6,7-tetrahydro-1H-pyrazolo[4,3-c]pyridin-1-yl)piperidin-1-yl)propyl)-2-((2-(2,6-dioxopiperidin-3-yl)-1,3-dioxoisoindolin-4-yl)amino)acetamide] | > 1000

same assay, conditions: Homo sapiens, 72 h; LNCaP cell viability, 3 days, CellTiter-Glo; Table 4

SMILES | IC50 [nM]
CC(=O)N1CCc2c(c(N3CCCc4cc(-c5cnn(C)c5)c(C(F)F)cc43)nn2C2CCN(CCN3CCNC(COc4cccc5c4C(=O)N(C4CCC(=O)NC4=O)C5=O)C3)CC2)C1 (stereo not drawn) [P-197, 4-((4-(2-(4-(5-acetyl-3-(7-(difluoromethyl)-6-(1-methyl-1H-pyrazol-4-yl)-3,4-dihydroquinolin-1(2H)-yl)-4,5,6,7-tetrahydro-1H-pyrazolo[4,3-c]pyridin-1-yl)piperidin-1-yl)ethyl)piperazin-2-yl)methoxy)-2-(2,6-dioxopiperidin-3-yl)isoindoline-1,3-dione] | > 500
CC(=O)N1CCc2c(c(N3CCCc4cc(-c5cnn(C)c5)c(C(F)F)cc43)nn2C2CCN(CCN3CCOC(CNc4cccc5c4CN(C4CCC(=O)NC4=O)C5=O)C3)CC2)C1 (stereo not drawn) [P-199, 3-(4-(((4-(2-(4-(5-acetyl-3-(7-(difluoromethyl)-6-(1-methyl-1H-pyrazol-4-yl)-3,4-dihydroquinolin-1(2H)-yl)-4,5,6,7-tetrahydro-1H-pyrazolo[4,3-c]pyridin-1-yl)piperidin-1-yl)ethyl)morpholin-2-yl)methyl)amino)-1-oxoisoindolin-2-yl)piperidine-2,6-dione] | > 500
CC(=O)N1CCc2c(c(N3CCCc4cc(-c5cnn(C)c5)c(C(F)F)cc43)nn2C2CCN(C(=O)CCN3CCC(COc4ccc5c(c4)n(C)c(=O)n5C4CCC(=O)NC4=O)CC3)CC2)C1 (stereo not drawn) [P-203, 3-(5-((1-(3-(4-(5-acetyl-3-(7-(difluoromethyl)-6-(1-methyl-1H-pyrazol-4-yl)-3,4-dihydroquinolin-1(2H)-yl)-4,5,6,7-tetrahydro-1H-pyrazolo[4,3-c]pyridin-1-yl)piperidin-1-yl)-3-oxopropyl)piperidin-4-yl)methoxy)-3-methyl-2-oxo-2,3-dihydro-1H-benzo[d]imidazol-1-yl)piperidine-2,6-dione] | > 500
CC(=O)N1CCc2c(c(N3CCCc4cc(-c5cnn(C)c5)c(C(F)F)cc43)nn2C2CCN(C(=O)CCCN3CCC(Cn4c(=O)n(C5CCC(=O)NC5=O)c5ccccc54)CC3)CC2)C1 (stereo not drawn) [P-204, 3-(3-((1-(4-(4-(5-acetyl-3-(7-(difluoromethyl)-6-(1-methyl-1H-pyrazol-4-yl)-3,4-dihydroquinolin-1(2H)-yl)-4,5,6,7-tetrahydro-1H-pyrazolo[4,3-c]pyridin-1-yl)piperidin-1-yl)-4-oxobutyl)piperidin-4-yl)methyl)-2-oxo-2,3-dihydro-1H-benzo[d]imidazol-1-yl)piperidine-2,6-dione] | > 500
CC(=O)N1CCc2c(c(N3CCCc4cc(-c5cnn(C)c5)c(C(F)F)cc43)nn2C2CCN(C(=O)CCCN3CCC(COc4ccc5c(c4)n(C)c(=O)n5C4CCC(=O)NC4=O)CC3)CC2)C1 (stereo not drawn) [P-206] | > 500
CC(=O)N1CCc2c(c(N3CCCc4cc(-c5cnn(C)c5)c(C(F)F)cc43)nn2C2CCN(C(=O)CCN3CCC(COc4cccc5c4n(C)c(=O)n5C4CCC(=O)NC4=O)CC3)CC2)C1 (stereo not drawn) [P-209, 3-(4-((1-(3-(4-(5-acetyl-3-(7-(difluoromethyl)-6-(1-methyl-1H-pyrazol-4-yl)-3,4-dihydroquinolin-1(2H)-yl)-4,5,6,7-tetrahydro-1H-pyrazolo[4,3-c]pyridin-1-yl)piperidin-1-yl)-3-oxopropyl)piperidin-4-yl)methoxy)-3-methyl-2-oxo-2,3-dihydro-1H-benzo[d]imidazol-1-yl)piperidine-2,6-dione] | > 500
CC(=O)N1CCc2c(c(N3CCCc4cc(-c5cnn(C)c5)c(C(F)F)cc43)nn2C2CCN(C(=O)CCCN3CCC(COc4cccc5c4n(C)c(=O)n5C4CCC(=O)NC4=O)CC3)CC2)C1 (stereo not drawn) [P-210, 3-(4-((1-(4-(4-(5-Acetyl-3-(7-(difluoromethyl)-6-(1-methyl-1H-pyrazol-4-yl)-3,4-dihydroquinolin-1(2H)-yl)-4,5,6,7-tetrahydro-1H-pyrazolo[4,3-c]pyridin-1-yl)piperidin-1-yl)-4-oxobutyl)piperidin-4-yl)methoxy)-3-methyl-2-oxo-2,3-dihydro-1H-benzo[d]imidazol-1-yl)piperidine-2,6-dione] | 325
